A word on the IC50: it is the midpoint of a concentration-inhibition curve. The term inhibition denotes the percentage by which the read-out fell short of the control. High values mean a strong effect, low ones a weak effect.

For 32 compounds, IC50 and inhibition results are on record in US9150555B2, “Amide derivative and use thereof” (Mitsubishi Tanabe Pharma Corporation, priority 2010, dated 2015).

Data set [1] concerns IL-17 production of mouse spleen cells stimulated by rm-IL-23. Kind of data set: Production of IL-17 induced when mouse spleen cells were stimulated by recombinant mouse interleukin-23 (rm-IL-23). The data set is classed as cell-based. As to conditions: Mus musculus, 72 h, inhibition of IL-17 production, DBA/1J mouse spleen cells, rm-IL-23 1 nmol/L, ELISA. The procedure, abridged:
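Spleen cells from 6-7 week-old male DBA/1J mice, 2×10^5 cells/well in 10% FCS RPMI1640, cultured 72 h at 37° C with compound (1 to 1,000 nmol/L) plus 1 nmol/L rm-IL-23. IL-17 in supernatant by ELISA; viability by WST-8 absorbance at 450 nm; IC50 by linear regression of inhibition rate.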

Another data set has as its target hERG (Homo sapiens, UniProt Q12809). The data set can be described thus: Effects on hERG current (whole-cell clamping). The following applies: human, HEK 293 cells that express hERG, pH 7.4, hERG inhibition rate (%) (1 μM), 1 μM; tail peak current; hERG-expressed HEK 293 cells. A general note: The hERG channel carries a current that helps repolarise heart muscle cells.

Sequence of hERG (Q12809 whole entry): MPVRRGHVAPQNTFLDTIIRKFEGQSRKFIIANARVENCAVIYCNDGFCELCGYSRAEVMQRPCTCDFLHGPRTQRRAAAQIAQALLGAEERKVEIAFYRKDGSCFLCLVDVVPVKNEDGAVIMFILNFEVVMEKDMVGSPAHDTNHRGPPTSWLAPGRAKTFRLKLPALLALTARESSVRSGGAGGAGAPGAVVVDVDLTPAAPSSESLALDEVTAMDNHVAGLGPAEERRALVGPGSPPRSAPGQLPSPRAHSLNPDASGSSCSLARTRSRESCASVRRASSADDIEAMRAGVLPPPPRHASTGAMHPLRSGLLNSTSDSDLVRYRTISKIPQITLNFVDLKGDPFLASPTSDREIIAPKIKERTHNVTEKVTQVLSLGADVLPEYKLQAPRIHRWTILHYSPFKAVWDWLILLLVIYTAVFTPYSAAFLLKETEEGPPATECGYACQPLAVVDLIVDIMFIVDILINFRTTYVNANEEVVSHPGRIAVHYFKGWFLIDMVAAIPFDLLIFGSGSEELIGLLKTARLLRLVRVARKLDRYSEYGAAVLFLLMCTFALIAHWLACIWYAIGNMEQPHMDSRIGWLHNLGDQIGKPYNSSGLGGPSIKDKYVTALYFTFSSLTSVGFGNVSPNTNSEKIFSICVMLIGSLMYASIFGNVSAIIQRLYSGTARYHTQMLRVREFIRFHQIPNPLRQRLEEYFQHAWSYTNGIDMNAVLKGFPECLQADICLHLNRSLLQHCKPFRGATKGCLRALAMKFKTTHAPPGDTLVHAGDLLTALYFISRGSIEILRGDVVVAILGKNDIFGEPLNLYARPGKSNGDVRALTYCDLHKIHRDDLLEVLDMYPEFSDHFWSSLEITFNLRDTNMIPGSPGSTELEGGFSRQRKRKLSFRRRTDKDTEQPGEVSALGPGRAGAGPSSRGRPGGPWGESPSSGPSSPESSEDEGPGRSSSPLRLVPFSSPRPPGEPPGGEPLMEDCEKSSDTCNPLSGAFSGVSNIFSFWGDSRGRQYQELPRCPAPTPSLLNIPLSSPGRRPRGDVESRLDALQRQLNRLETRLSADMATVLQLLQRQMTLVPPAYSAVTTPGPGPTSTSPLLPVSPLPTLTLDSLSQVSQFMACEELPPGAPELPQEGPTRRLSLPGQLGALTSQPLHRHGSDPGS
Procedure for hERG: Dimethylsulfoxide was used as a vehicle and hERG-expressed HEK 293 cells (Cytomyx) were used as test cells. Test cells were once cultured and subdivided and were stored under frozen condition in liquid nitrogen. In the study, thawed and subcultured cells having less than 30 of the passage number were used. Test cells were cultured in a carbon dioxide incubator BNP-110M (Tabai Espec Corp.) at 37±1° C., and 5.0±0.5% of carbon dioxide concentration. The component of culture medium was MEM (Minimum Essential Medium) supplemented with 10 vol % fetal bovine serum (non-activated), 1 mmol/L sodium pyruvate, 0.1 mmol/L non-essential amino acid, 100 U/mL penicillin with 100 μg/mL streptomycin. To select gene-expressing cells, 400 μg/mL G418 Sulphate (Invitrogen) was added to the culture medium. In the dishes for the measurement, the medium which not contain G418 Sulphate (Invitrogen) was used.
As to seeding of cells for measurement, subcultured cells which became confluent were treated with 0.25% trypsin-solution containing 1 mmol/L EDTA (Invitrogen) to remove from the plate, and seeded on sterilized collagen-coated cover glass (Iwaki, AGC Techno Glass Co., LTD). The medium was exchanged appropriately, including the day of measurement.
A perfusion method was applied to the experiment. Test cells were perfused (perfusion speed: approximately 4 mL/min) with an external solution containing specified concentrations of test compounds (component of external solution: 137 mmol/L of sodium chloride, 4 mmol/L of potassium chloride, 10 mmol/L of HEPES, 1.8 mmol/L of calcium chloride, 1 mmol/L of magnesium chloride and 10 mmol/L of glucose; adjusted to pH 7.4±0.1 with sodium hydroxide aqueous solution). […] When effects were observed, the perfusion was continued until the maximum response was observed. […] The data were obtained from one experiment or more and the cells which were incubated in a carbon dioxide incubator after seeding and attached to cover slips were used for the measurement.
A whole-cell clamping method was applied to the measurement. Test cells were perfused (perfusion speed: approximately 4 mL/min) with an external solution (component of external solution: 137 mmol/L of sodium chloride, 4 mmol/L of potassium chloride, 10 mmol/L of HEPES, 1.8 mmol/L of calcium chloride, 1 mmol/L of magnesium chloride and 10 mmol/L of glucose; adjusted to pH 7.4±0.1 with sodium hydroxide aqueous solution). A glass electrode with a resistance of 2 to 6 MΩ, filled with an internal solution (component: 130 mmol/L of potassium chloride, 1 mmol/L of magnesium chloride, 5 mmol/L of EGTA, 10 mmol/L of HEPES and 5 mmol/L of ATP adjusted to pH 7.2±0.1 with sodium hydroxide aqueous solution) was used. After rupturing cell membrane with glass electrode, the cell membrane voltage was held at −80 mV via a patch clamp software (pCLAMP9 [Axon CNS], Molecular Devices) using patch clamp amplifier (EPC8, HEKA). […] Test cells and the cell-attached cover glass were changed every treatment. Temperature of the fluid in a perfusion fluid tank was 24±2° C.
The obtained current was recorded on a computer via a patch clamp amplifier using patch clamp software. An evaluation item was a tail peak current.
A tail peak current was analyzed using analyzing software (Clampfit 9 [Axon CNS], MolecularDevices). Each 2 pulses of before and after perfusion of test compound for each concentration was analyzed, and a peak values of the tail current on the pulses were determined. The inhibition ratio was determined according to the following equation:

With `Cc1cc(NC(=O)c2cnn(-c3ccc(C(F)(F)F)cn3)c2C)cnc1C1CCC(=O)CC1` [Example F32], the IC50 in data set [1] came to 146 nM. Further, at hERG, 1 µM produced 17.9% inhibition.

On to `Cc1c(C(=O)Nc2ccc([C@H]3CC[C@H](O)CC3)nc2)cnn1-c1ccc(C(C)(C)C)cc1` [Example G4, trans-1-(4-tert-Butylphenyl)-N-[6-(4-hydroxycyclohexyl)pyridin-3-yl]-5-methyl-1H-pyrazole-4-carboxamide], for which, in data set [1], the IC50 was found to be 48 nM. The inhibition at 1 µM on hERG is 5.2%.

For the compound `Cc1cc(NC(=O)c2cnn(-c3ccc(C(F)(F)F)cc3)c2C)cnc1C1=CCC(O)CC1` (stereo not shown) [Example G5, N-[6-(4-Hydroxycyclohex-1-en-1-yl)-5-methylpyridin-3-yl]-5-methyl-1-[4-(trifluoromethyl)-phenyl]-1H-pyrazole-4-carboxamide], the IC50 in data set [1] worked out at 86.6 nM. On hERG, this compound displayed an inhibition at 1 µM of 11.7%.

Regarding `Cc1c(C(=O)Nc2ccc([C@]3(C#N)CC[C@@H](O)CC3)nc2)cnn1-c1ccc(Cl)c(Cl)c1` [Example G8], the IC50 in data set [1] worked out at 56.4 nM. Further, the inhibition at 1 µM on hERG came to 1.9%.

Regarding `Cc1c(C(=O)Nc2ccc(C3CCC(O)CC3)nc2)cnn1-c1ccc(Cl)cc1` (stereo not shown) [Example G9], the IC50 in data set [1] turned out to be 145 nM. At hERG, this compound returned an inhibition at 1 µM of 0.8%.

Regarding `Cc1c(C(=O)Nc2ccc(C3CCC(O)CC3)nc2)cnn1-c1ccc(C(F)(F)F)cc1` (stereo not shown) [Example G10], the IC50 in data set [1] was determined as 118 nM. This compound gave an inhibition at 1 µM against hERG of 5.1%.

Consider `Cc1c(C(=O)Nc2ccc([C@]3(C#N)CC[C@@H](O)CC3)nc2)cnn1-c1ccc(OC(F)(F)F)cc1` [Example G11], for which the IC50 in data set [1] came to 84.6 nM. Besides, on hERG, the inhibition at 1 µM is 12.2%.

Take `Cc1c(C(=O)Nc2ccc([C@]3(C#N)CC[C@@H](O)CC3)nc2)cnn1-c1ccc(F)c(F)c1` [Example G12]: the IC50 in data set [1] turned out to be 260 nM. In addition, testing at 1 µM at hERG gave an inhibition of 6.5%.

Take `Cc1cc(NC(=O)c2cnn(-c3ncc(C(F)(F)F)cc3F)c2C)cnc1[C@H]1CC[C@H](O)CC1` [Example G29, trans-1-[3-Fluoro-5-(trifluoromethyl)pyridin-2-yl]-N-[6-(1-hydroxycyclohexan-4-yl)-5-methylpyridin-3-yl]-5-methyl-1H-pyrazole-4-carboxamide]: the IC50 in data set [1] was found to be 133 nM. On hERG, this compound displayed an inhibition at 1 µM of 6.7%.

For `COc1cc(C(F)(F)F)cnc1-n1ncc(C(=O)Nc2cnc([C@H]3CC[C@H](O)CC3)c(C)c2)c1C` [Example G30], in data set [1], the IC50 amounted to 147 nM. Also, the inhibition at 1 µM on hERG amounted to 3.2%.

Consider `Cc1cc(NC(=O)c2cnn(-c3ncc(C(F)(F)F)cc3Cl)c2C)cnc1[C@H]1CC[C@H](O)CC1` [Example G32, trans-1-[3-Chloro-5-(trifluoromethyl)pyridin-2-yl]-N-[6-(1-hydroxycyclohexan-4-yl)-5-methylpyridin-3-yl]-5-methyl-1H-pyrazole-4-carboxamide], for which the IC50 in data set [1] was 105 nM. The compound further registered an inhibition at 1 µM against hERG of 7.9%.

As to `Cc1cc(NC(=O)c2cnn(-c3ccc(C(F)(F)F)cn3)c2C)cnc1[C@H]1CC[C@H](O)CC1` [Example J7, trans-N-[6-(4-Hydroxycyclohexyl)-5-methylpyridin-3-yl]-5-methyl-1-[5-(trifluoromethyl)-pyridin-2-yl]-1H-pyrazole-4-carboxamide], the IC50 in data set [1] is 67.5 nM. Further, the inhibition at 1 µM against hERG turned out to be 7.9%.

In the case of `Cc1c(C(=O)Nc2ccc([C@H]3CC[C@H](O)CC3)nc2)cnn1-c1ccc(OCCOC(C)(C)C)cc1` [Example J8], the IC50 in data set [1] was 53 nM. The compound further had an inhibition at 1 µM at hERG of 11.3%.

Take `Cc1cc(NC(=O)c2cnn(-c3ccc(C4CC4)cn3)c2C)cnc1[C@H]1CC[C@H](O)CC1` [Example J12]: the IC50 in data set [1] came out at 149 nM. Also, on hERG, testing at 1 µM gave an inhibition of 10.8%.

Turning to `Cc1c(C(=O)Nc2ccc([C@]3(C#N)CC[C@@H](O)CC3)nc2)cnn1-c1ccc(C2CC2)cn1` [Example J13], the IC50 in data set [1] was 242 nM. The inhibition at 1 µM on hERG amounted to 10.7%.

`Cc1c(C(=O)Nc2ccc([C@]3(C#N)CC[C@@H](O)CC3)nc2)cnn1-c1ncc(C(F)(F)F)cc1Cl` [Example J15]: in data set [1], the IC50 is 438 nM. At hERG, this compound had an inhibition at 1 µM of 8.2%.

For the compound `Cc1c(C(=O)Nc2ccc([C@]3(C#N)CC[C@@H](O)CC3)nc2)cnn1-c1ncc(C(F)(F)F)cc1F` [Example J16], the IC50 in data set [1] stood at 305 nM. Moreover, on hERG, the inhibition at 1 µM is 13.5%.

With `Cc1c(C(=O)Nc2ccc([C@]3(C#N)CC[C@@H](O)CC3)nc2)cnn1-c1ncc(C2CC2)cc1F` [Example J17], the half-inhibitory concentration (IC50) in data set [1] was 275 nM. On hERG, the inhibition at 1 µM was determined as 2.4%.

As to `Cc1c(C(=O)Nc2ccc([C@]3(C#N)CC[C@@H](O)CC3)nc2)cnn1-c1ccc(C(C)C)cc1` [Example J18], the IC50 in data set [1] was determined as 137 nM. Besides, the inhibition at 1 µM against hERG came out at 17.8%.

With `Cc1c(C(=O)Nc2ccc([C@]3(C#N)CC[C@@H](O)CC3)nc2)cnn1-c1ccc(C2CC2)cc1` [Example J19], the IC50 in data set [1] came out at 132 nM. This compound had an inhibition at 1 µM against hERG of 18.5%.

On to `CCc1ccc(-n2ncc(C(=O)Nc3ccc([C@]4(C#N)CC[C@@H](O)CC4)nc3)c2C)cc1` [Example J20], for which the half-inhibitory concentration (IC50) in data set [1] worked out at 90 nM. The inhibition at 1 µM against hERG was 18.1%.

In the case of `Cc1c(C(=O)Nc2ccc(C3(C(=O)O)CCCCC3)nc2)cnn1-c1ccc(Cl)cc1` [Example K4, 1-[5-({[1-(4-Chlorophenyl)-5-methyl-1H-pyrazol-4-yl]carbonyl}amino)pyridin-2-yl]-cyclohexanecarboxylic acid], the concentration for half-maximal inhibition (IC50) in data set [1] amounted to 127 nM. Moreover, the inhibition at 1 µM against hERG turned out to be 17.2%.

As for `Cc1c(C(=O)Nc2ccc(C3(C#N)CCC(O)CC3)nc2)cnn1-c1ccc(C(F)(F)F)cn1` (stereo not shown) [Example K6, N-[6-(r-1-Cyano-c-4-hydroxycyclohexyl)pyridin-3-yl]-5-methyl-1-[5-(trifluoromethyl)pyridin-2-yl]-1H-pyrazole-4-carboxamide], the IC50 in data set [1] came to 148 nM. Moreover, the inhibition at 1 µM on hERG amounted to 40%.

Take `Cc1ccc(-n2ncc(C(=O)Nc3ccc([C@]4(C#N)CC[C@@H](OCCO)CC4)nc3)c2C)cc1` [Example K19, N-{6-[r-1-cyano-c-4-(2-hydroxyethoxy)cyclohexyl]pyridin-3-yl}-5-methyl-1-(4-methylphenyl)-1H-pyrazole-4-carboxamide]: in data set [1], the 50% inhibitory concentration (IC50) turned out to be 148 nM. Also, on hERG, the inhibition at 1 µM is 2.4%.

Consider `CNC1CC=C(c2ncc(NC(=O)c3cnn(-c4ccc(C(F)(F)F)cn4)c3C)cc2C)CC1` (stereo not shown) [Example K26, 5-Methyl-N-[5-methyl-6-(4-methylaminocyclohex-1-en-1-yl)pyridin-3-yl]-1-[5-(trifluoromethyl)pyridin-2-yl]-1H-pyrazole-4-carboxamide], for which the IC50 in data set [1] stood at 376 nM. Testing at 1 µM against hERG gave an inhibition of 14.3%.

Take `CC(=O)N(C)C1CC=C(c2ncc(NC(=O)c3cnn(-c4ccc(C(F)(F)F)cn4)c3C)cc2C)CC1` (stereo not shown) [Example K27, N-{6-[4-(N-Acetyl-N-methylamino)cyclohex-1-en-1-yl]-5-methylpyridin-3-yl}-5-methyl-1-[5-(trifluoromethyl)pyridin-2-yl]-1H-pyrazole-4-carboxamide]: the concentration for half-maximal inhibition (IC50) in data set [1] came to 242 nM. 1 µM produced 9.7% inhibition against hERG.

For the compound `Cc1cc(NC(=O)c2cnn(-c3ccc(C(F)(F)F)cn3)c2C)cnc1C1=CCC(N(C)C(=O)C(C)(C)C)CC1` (stereo not shown) [Example K28, N-(6-{4-[N-(2,2-Dimethylpropion-1-yl)-N-methylamino]cyclohex-1-en-1-yl}-5-methylpyridin-3-yl)-5-methyl-1-[5-(trifluoromethyl)pyridin-2-yl]-1H-pyrazole-4-carboxamide], the IC50 in data set [1] came to 8.11 nM. Further, 1 µM produced 5.1% inhibition at hERG.

Take `Cc1cc(NC(=O)c2cnn(-c3ccc(C(F)(F)F)cn3)c2C)cnc1C1=CCC(N(C)CCC(C)(C)C)CC1` (stereo not shown) [Example K30, N-(6-[4-[N-(3,3-Dimethylbutyl)-N-methylamino]cyclohex-1-en-1-yl]-5-methylpyridin-3-yl)-5-methyl-1-[5-(trifluoromethyl)pyridin-2-yl]-1H-pyrazole-4-carboxamide]: the IC50 in data set [1] is 368 nM. The compound further returned an inhibition at 1 µM against hERG of 79.6%.

Regarding `Cc1cc(NC(=O)c2cnn(-c3ccc(C(F)(F)F)cn3)c2C)cnc1C1=CCC(C(C)(C)O)CC1` (stereo not shown) [Example K31, N-{6-[4-(1-Hydroxy-1-methylethyl)cyclohex-1-en-1-yl]-5-methylpyridin-3-yl}-5-methyl-1-[5-(trifluoromethyl)pyridin-2-yl]-1H-pyrazole-4-carboxamide], the IC50 in data set [1] came to 4.27 nM. The compound further registered an inhibition at 1 µM at hERG of 15.8%.

Take `Cc1c(C(=O)Nc2ccc(C3=CCC(C(C)(C)O)CC3)nc2)cnn1-c1ccc(C(F)(F)F)cn1` (stereo not shown) [Example K32, N-{6-[4-(1-Hydroxyl-methylethyl)cyclohex-1-en-1-yl]pyridin-3-yl}-5-methyl-1-[5-(trifluoromethyl)pyridin-2-yl]-1H-pyrazole-4-carboxamide]: the IC50 in data set [1] stood at 6.32 nM. The inhibition at 1 µM against hERG turned out to be 11.3%.

With `CC[C@]1(O)CC[C@](C#N)(c2ccc(NC(=O)c3cnn(-c4ccc(F)cc4)c3C)cn2)CC1` [Example K33, N-[6-(r-1-Cyano-4-ethyl-c-4-hydroxycyclohexan-1-yl)pyridin-3-yl]-1-(4-fluorophenyl)-5-methyl-1H-pyrazole-4-carboxamide], in data set [1], the IC50 was 206 nM. Also, at hERG, the inhibition at 1 µM came to 8%.

Consider `CC[C@]1(O)CC[C@@](C#N)(c2ccc(NC(=O)c3cnn(-c4ccc(C)cc4)c3C)cn2)CC1` [Example K34, N-[6-(r-1-Cyano-4-ethyl-t-4-hydroxycyclohexan-1-yl)pyridin-3-yl]-5-methyl-1-(4-methylphenyl)-1H-pyrazole-4-carboxamide], for which the IC50 in data set [1] amounted to 154 nM. This compound also yielded an inhibition at 1 µM against hERG of 0.5%.
